Source: PubChem BioAssay (NCI)
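Five concentrations, 48 hours, 96-well plates. GI50: concentration for 50% inhibition of growth. TGI: total growth inhibition.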

Experiments:
Experiment in all cases: inhibition of tumour cell growth, NCI panel, 48 h
LOX IMVI melanoma = test system: LOX IMVI melanoma
HCT-116 colon = test system: HCT-116 colon
HCT-15 colon = test system: HCT-15 colon
RPMI-8226 leukemia = test system: RPMI-8226 leukemia
OVCAR-5 ovarian = test system: OVCAR-5 ovarian
HS 578T breast = test system: HS 578T breast
MOLT-4 leukemia = test system: MOLT-4 leukemia
HT29 colon = test system: HT29 colon
DU-145 prostate = test system: DU-145 prostate
A498 renal = test system: A498 renal
UACC-257 melanoma = test system: UACC-257 melanoma
KM12 colon = test system: KM12 colon
HCC-2998 colon = test system: HCC-2998 colon
TK-10 renal = test system: TK-10 renal
SNB-75 CNS = test system: SNB-75 CNS
NCI-H226 lung = test system: NCI-H226 lung
OVCAR-3 ovarian = test system: OVCAR-3 ovarian
NCI-H522 lung = test system: NCI-H522 lung
HL-60(TB) leukemia = test system: HL-60(TB) leukemia
UO-31 renal = test system: UO-31 renal
T-47D breast = test system: T-47D breast
MCF7 breast = test system: MCF7 breast
SF-295 CNS = test system: SF-295 CNS
HOP-62 NSCLC = test system: HOP-62 NSCLC
MDA-MB-231 breast = test system: MDA-MB-231 breast
NCI/ADR-RES ovarian = test system: NCI/ADR-RES ovarian
UACC-62 melanoma = test system: UACC-62 melanoma
SK-MEL-5 melanoma = test system: SK-MEL-5 melanoma
BT-549 breast = test system: BT-549 breast
SR leukemia = test system: SR leukemia
A549 NSCLC = test system: A549 NSCLC
SF-539 CNS = test system: SF-539 CNS
SW-620 colon = test system: SW-620 colon
SK-MEL-2 melanoma = test system: SK-MEL-2 melanoma
MALME-3M melanoma = test system: MALME-3M melanoma
ACHN renal = test system: ACHN renal
IGROV1 ovarian = test system: IGROV1 ovarian
NCI-H460 lung = test system: NCI-H460 lung
COLO 205 colon = test system: COLO 205 colon
SK-OV-3 ovarian = test system: SK-OV-3 ovarian
SN12C renal = test system: SN12C renal
CCRF-CEM leukemia = test system: CCRF-CEM leukemia
CAKI-1 renal = test system: CAKI-1 renal
OVCAR-4 ovarian = test system: OVCAR-4 ovarian
SK-MEL-28 melanoma = test system: SK-MEL-28 melanoma
MDA-MB-435 = test system: MDA-MB-435
K-562 leukemia = test system: K-562 leukemia
U251 CNS = test system: U251 CNS
PC-3 prostate = test system: PC-3 prostate
M14 melanoma = test system: M14 melanoma
SF-268 CNS = test system: SF-268 CNS
786-0 renal = test system: 786-0 renal
OVCAR-8 ovarian = test system: OVCAR-8 ovarian
SNB-19 CNS = test system: SNB-19 CNS
HOP-92 NSCLC = test system: HOP-92 NSCLC
EKVX NSCLC = test system: EKVX NSCLC
RXF 393 renal = test system: RXF 393 renal

Compound: CN(C)CCCNc1c2ccccc2nc2c1oc1ccc(Cl)cc12
- GI50 (LOX IMVI melanoma): 1.64 µM
- TGI (LOX IMVI melanoma): 3.33 µM
- GI50 (HCT-116 colon): 0.949 µM
- TGI (HCT-116 colon): 2.32 µM
- GI50 (HCT-15 colon): 1.45 µM
- TGI (HCT-15 colon): 6.5 µM
- GI50 (RPMI-8226 leukemia): 2.66 µM
- GI50 (OVCAR-5 ovarian): 5.24 µM
- TGI (OVCAR-5 ovarian): 18.8 µM
- GI50 (HS 578T breast): 4.65 µM
- TGI (HS 578T breast): 21.3 µM
- GI50 (MOLT-4 leukemia): 0.521 µM
- TGI (MOLT-4 leukemia): 18.9 µM
- GI50 (HT29 colon): 1.03 µM
- TGI (HT29 colon): 2.94 µM
- GI50 (DU-145 prostate): 4.1 µM
- TGI (DU-145 prostate): 16.6 µM
- GI50 (A498 renal): 9.15 µM
- TGI (A498 renal): 22.9 µM
- GI50 (UACC-257 melanoma): 4.65 µM
- TGI (UACC-257 melanoma): 17.2 µM
- GI50 (KM12 colon): 2.75 µM
- TGI (KM12 colon): 14.9 µM
- GI50 (HCC-2998 colon): 1.43 µM
- TGI (HCC-2998 colon): 3.73 µM
- GI50 (TK-10 renal): 7.35 µM
- TGI (TK-10 renal): 20.1 µM
- GI50 (SNB-75 CNS): 3.67 µM
- TGI (SNB-75 CNS): 17.4 µM
- GI50 (NCI-H226 lung): 4.18 µM
- TGI (NCI-H226 lung): 18.2 µM
- GI50 (OVCAR-3 ovarian): 6.44 µM
- TGI (OVCAR-3 ovarian): 20.2 µM
- GI50 (NCI-H522 lung): 3.73 µM
- TGI (NCI-H522 lung): 16.6 µM
- GI50 (HL-60(TB) leukemia): 2.71 µM
- TGI (HL-60(TB) leukemia): 10.1 µM
- GI50 (UO-31 renal): 3.15 µM
- TGI (UO-31 renal): 15.1 µM
- GI50 (T-47D breast): 6.18 µM
- TGI (T-47D breast): 19.9 µM
- GI50 (MCF7 breast): 1.23 µM
- TGI (MCF7 breast): 4.59 µM
- GI50 (SF-295 CNS): 4.6 µM
- TGI (SF-295 CNS): 17.3 µM
- GI50 (HOP-62 NSCLC): 4.08 µM
- TGI (HOP-62 NSCLC): 17 µM
- GI50 (MDA-MB-231 breast): 2 µM
- TGI (MDA-MB-231 breast): 5.69 µM
- GI50 (NCI/ADR-RES ovarian): 1.52 µM
- TGI (NCI/ADR-RES ovarian): 10.8 µM
- GI50 (UACC-62 melanoma): 10.9 µM
- TGI (UACC-62 melanoma): 24.5 µM
- GI50 (SK-MEL-5 melanoma): 12.5 µM
- TGI (SK-MEL-5 melanoma): 25 µM
- GI50 (BT-549 breast): 3.76 µM
- TGI (BT-549 breast): 14.3 µM
- GI50 (SR leukemia): 2.19 µM
- TGI (SR leukemia): 10.1 µM
- GI50 (A549 NSCLC): 3.43 µM
- TGI (A549 NSCLC): 15.3 µM
- GI50 (SF-539 CNS): 3.31 µM
- TGI (SF-539 CNS): 12.7 µM
- GI50 (SW-620 colon): 0.777 µM
- TGI (SW-620 colon): 8.63 µM
- GI50 (SK-MEL-2 melanoma): 4.2 µM
- TGI (SK-MEL-2 melanoma): 16.4 µM
- GI50 (MALME-3M melanoma): 4.5 µM
- TGI (MALME-3M melanoma): 17.1 µM
- GI50 (ACHN renal): 1.76 µM
- TGI (ACHN renal): 15.6 µM
- GI50 (IGROV1 ovarian): 3.68 µM
- TGI (IGROV1 ovarian): 16.2 µM
- GI50 (NCI-H460 lung): 1.05 µM
- TGI (NCI-H460 lung): 4.79 µM
- GI50 (COLO 205 colon): 1.94 µM
- TGI (COLO 205 colon): 9.57 µM
- GI50 (SK-OV-3 ovarian): 4.53 µM
- TGI (SK-OV-3 ovarian): 17.3 µM
- GI50 (SN12C renal): 2.58 µM
- TGI (SN12C renal): 13.1 µM
- GI50 (CCRF-CEM leukemia): 2.21 µM
- TGI (CCRF-CEM leukemia): 12.6 µM
- GI50 (CAKI-1 renal): 2.32 µM
- TGI (CAKI-1 renal): 13.3 µM
- GI50 (OVCAR-4 ovarian): 2.83 µM
- TGI (OVCAR-4 ovarian): 14 µM
- GI50 (SK-MEL-28 melanoma): 4.48 µM
- TGI (SK-MEL-28 melanoma): 16.2 µM
- GI50 (MDA-MB-435): 3.91 µM
- TGI (MDA-MB-435): 16.1 µM
- GI50 (K-562 leukemia): 1.25 µM
- TGI (K-562 leukemia): 11.3 µM
- GI50 (U251 CNS): 3.69 µM
- TGI (U251 CNS): 16.4 µM
- GI50 (PC-3 prostate): 3.92 µM
- TGI (PC-3 prostate): 15.8 µM
- GI50 (M14 melanoma): 1.75 µM
- TGI (M14 melanoma): 4.2 µM
- GI50 (SF-268 CNS): 3.06 µM
- TGI (SF-268 CNS): 16.5 µM
- GI50 (786-0 renal): 3.22 µM
- TGI (786-0 renal): 14.4 µM
- GI50 (OVCAR-8 ovarian): 3.75 µM
- TGI (OVCAR-8 ovarian): 20.2 µM
- GI50 (SNB-19 CNS): 4.95 µM
- TGI (SNB-19 CNS): 18.4 µM
- GI50 (HOP-92 NSCLC): 1.37 µM
- TGI (HOP-92 NSCLC): 6.59 µM
- GI50 (EKVX NSCLC): 5.22 µM
- TGI (EKVX NSCLC): 18.6 µM
- GI50 (RXF 393 renal): 1.95 µM
- TGI (RXF 393 renal): 6.74 µM
